Earlier results as cited in patent US4150121A, “Kinin containing injection composition” (THERA Gesellschaft fur Patentverwertung mbH, priority 1976, dated 1979).
Where a SMILES comes first, the peptide text is derived from it.

Details: intracutaneous injection

Compound: NC(N)=NCCC[C@H](NC(=O)[C@H](Cc1ccccc1)NC(=O)[C@@H]1CCCN1C(=O)[C@H](CO)NC(=O)[C@H](Cc1ccccc1)NC(=O)CNC(=O)[C@@H]1CCCN1C(=O)[C@@H]1CCCN1C(=O)[C@@H](N)CCCN=C(N)N)C(=O)O [Bradykinin, (NH2) arginine - proline - proline -glycine - phenylalanine - serine - proline - phenylalanine - arginine (COOH)] (H-RPPGFSPFR-OH)
- amount causing vehement pain reactions: about 0.1 microgram in 1 milliliter of solution

Compound: kallidin: decapeptide kinin: Brady kinin extended at the amino end by an additional lysine residue
- amount causing vehement pain reactions: about 0.1 microgram in 1 milliliter of solution
